Test results as given in patent US8637568B2, “Serotonin reuptake inhibitors” (Theravance, Inc., priority 2010, dated 2014).

molecular target: T1, human recombinant SERT (HEK293-hSERT cells) (Homo sapiens, UniProt P31645); test: hSERT neurotransmitter uptake assay; format: cell-based; conditions: serotonin reuptake inhibition in HEK293-hSERT cells
T1 construct: expressed in transfected cells; host or cells: HEK293 (stably transfected), whole cells
Description: HEK293 cells stably-transfected with human recombinant SERT (HEK293-hSERT) were grown in Dulbecco's Modified Eagle's Medium supplemented with 10% dialyzed fetal bovine serum, 100 µg/ml penicillin, 100 µg/ml streptomycin, 2 mM L-glutamine, and 250 μg/ml of the aminoglycoside antibiotic G418. Cells were incubated in a 5% CO2, humidified incubator at 37° C.
In pre-incubation studies, test compound was added to cells for 30 minutes at 37° C. prior to the addition of fluorescent substrate. […] For real-time measurements, compounds were either preincubated (as above) or mixed with substrate prior to addition, and kinetic measurements, relative fluorescence units (RFU integrated over 0.5 ms),were made using a cycle time of 1 min.

T1 sequence (P31645 whole entry): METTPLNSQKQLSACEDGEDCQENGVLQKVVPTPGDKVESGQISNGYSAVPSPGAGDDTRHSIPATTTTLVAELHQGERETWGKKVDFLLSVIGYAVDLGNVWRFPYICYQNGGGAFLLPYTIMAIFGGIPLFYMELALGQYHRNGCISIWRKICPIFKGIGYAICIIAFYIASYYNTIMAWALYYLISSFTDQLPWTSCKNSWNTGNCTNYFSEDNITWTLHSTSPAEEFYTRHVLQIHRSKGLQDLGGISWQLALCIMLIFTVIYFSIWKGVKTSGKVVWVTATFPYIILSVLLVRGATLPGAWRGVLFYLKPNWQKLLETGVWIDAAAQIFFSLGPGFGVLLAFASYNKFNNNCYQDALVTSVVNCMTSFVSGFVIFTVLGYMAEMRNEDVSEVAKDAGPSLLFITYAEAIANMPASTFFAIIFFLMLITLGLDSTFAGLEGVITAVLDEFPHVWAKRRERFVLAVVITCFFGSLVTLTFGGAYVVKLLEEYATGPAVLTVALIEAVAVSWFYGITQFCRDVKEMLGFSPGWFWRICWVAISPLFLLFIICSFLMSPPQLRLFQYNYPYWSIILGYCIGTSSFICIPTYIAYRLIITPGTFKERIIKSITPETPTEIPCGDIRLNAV

SERT pIC50 | SMILES
≧7.0 | NC(=O)NS(=O)(=O)NC[C@@H](Oc1ccc(C(F)(F)F)cc1)[C@H]1CCNC1 [Example 3-10, N[(S)-2-(S)-pyrrolidin-3-yl-2-(4-trifluoromethylphenoxy)ethyl]sulfonylurea]

same assay, conditions: serotonin reuptake inhibition in HEK293-hSERT cells; read-out: SERT pIC50 (converted)

SMILES | IC50 [nM]
CC(C)S(=O)(=O)NC[C@@H](Oc1ccc(C(F)(F)F)cc1)[C@H]1CCNC1 [Example 3-7, Propane-2-sulfonic acid [(S)-2-(S)-pyrrolidin-3-yl-2-(4-trifluoromethylphenoxy)ethyl]amide] | ≤ 100
CNS(=O)(=O)c1ccc(S(=O)(=O)NCC(Oc2ccc(C(F)(F)F)cc2)C2CCNC2)cc1 [Example 3-31, Benzene-1,4-disulfonic acid 1-methylamide 4-{[(S)-2-(S)-pyrrolidin-3-yl-2-(4-trifluoromethylphenoxy)ethyl]amide}] | ≤ 10
O=S(=O)(NC[C@@H](Oc1ccc(C(F)(F)F)cc1)[C@H]1CCNC1)c1cccc2nonc12 [Example 3-16, Benzo[1,2,5]oxadiazole-4-sulfonic acid [(S)-2-(S)-pyrrolidin-3-yl-2-(4-trifluoromethylphenoxy)ethyl]amide] | ≤ 10
CN(C)S(=O)(=O)C[C@@H](Oc1ccc(C(F)(F)F)cc1)[C@H]1CCNC1 [Example 7-1, (S)-2-(S)-Pyrrolidin-3-yl-2-(4-trifluoromethylphenoxy)ethanesulfonic acid dimethylamide] | ≤ 10
O=S(=O)(NC[C@@H](Oc1ccc(C(F)(F)F)cc1)[C@H]1CCNC1)c1ncn[nH]1 [Example 3-15] | ≤ 100
O=S(=O)(NC[C@@H](Oc1ccc(C(F)(F)F)cc1)[C@H]1CCNC1)c1ccc(-c2ncccn2)cc1 [Example 3-34, 4-Pyrimidin-2-yl-N-[(S)-2-(S)-pyrrolidin-3-yl-2-(4-trifluoromethylphenoxy)ethyl]benzenesulfonamide] | ≤ 10
NS(=O)(=O)C[C@@H](Oc1ccc(C(F)(F)F)cc1)[C@H]1CCNC1 [Example 4, (S)-2-(S)-Pyrrolidin-3-yl-2-(4-trifluoromethylphenoxy)ethanesulfonic Acid Amide] | ≤ 10
CCS(=O)(=O)NC[C@@H](Oc1ccc(C(F)(F)F)cc1)[C@H]1CCNC1 [Example 3-5, Ethanesulfonic acid [(S)-2-(S)-pyrrolidin-3-yl-2-(4-trifluoromethylphenoxy)-ethyl]amide] | ≤ 10
O=S(=O)(NC[C@@H](Oc1ccc(C(F)(F)F)cc1)[C@H]1CCNC1)N1CCOCC1 [Example 3-17, Morpholine-4-sulfonic acid [(S)-2-(S)-pyrrolidin-3-yl-2-(4-trifluoromethylphenoxy)ethyl]amide] | ≤ 10
O=S(=O)(NC[C@@H](Oc1ccc(C(F)(F)F)cc1)[C@H]1CCNC1)c1ccc(-c2cnco2)cc1 [Example 2, 4-Oxazol-5-yl-N—[(S)-2-(S)-pyrrolidin-3-yl-2-(4-trifluoromethylphenoxy)ethyl]benzenesulfonamide] | ≤ 10
CS(=O)(=O)CS(=O)(=O)NC[C@@H](Oc1ccc(C(F)(F)F)cc1)[C@H]1CCNC1 [Example 3-12, C-Methanesulfonyl-N-[(S)-2-(S)-pyrrolidin-3-yl-2-(4-trifluoromethylphenoxy)ethyl]methanesulfonamide] | ≤ 10
O=S(=O)(NC[C@@H](Oc1ccc(C(F)(F)F)cc1)[C@H]1CCNC1)c1cnc[nH]1 [Example 3-13, 3H-Imidazole-4-sulfonic acid [(S)-2-(S)-pyrrolidin-3-yl-2-(4-trifluoromethylphenoxy)ethyl]amide] | ≤ 100
Cn1cncc1S(=O)(=O)NC[C@@H](Oc1ccc(C(F)(F)F)cc1)[C@H]1CCNC1 [Example 3-14, 3-Methyl-3H-imidazole-4-sulfonic acid [(S)-2-(S)-pyrrolidin-3-yl-2-(4-trifluoromethylphenoxy)ethyl]amide] | ≤ 100
Cc1cc(C)n(-c2ccc(S(=O)(=O)NCC(Oc3ccc(C(F)(F)F)cc3)C3CCNC3)cc2)n1 [Example 3-33, 4-(3,5-Dimethyl-pyrazol-1-yl)-N-(S)-2-(S)-pyrrolidin-3-yl-2-(4-trifluoromethylphenoxy)ethyl]benzenesulfonamide] | ≤ 10
CNS(=O)(=O)C[C@@H](Oc1ccc(C(F)(F)F)cc1)[C@H]1CCNC1 [Example 6, (S)-2-(S)-Pyrrolidin-3-yl-2-(4-trifluoromethylphenoxy)ethanesulfonic Acid Methylamide] | ≤ 10
CN(C)S(=O)(=O)NC[C@@H](Oc1ccc(C(F)(F)F)cc1)[C@H]1CCNC1 [Example 3-11] | ≤ 10
O=S(=O)(NCC(Oc1ccc(C(F)(F)F)cc1)C1CCNC1)c1ccc(-c2nnn[nH]2)cc1 [Example 3-35, N[(S)-2-(S)-Pyrrolidin-3-yl-2-(4-trifluoromethylphenoxy)ethyl]-4-(1H-tetrazol-5-yl)-benzenesulfonamide] | ≤ 100
CN(C[C@@H](Oc1ccc(C(F)(F)F)cc1)[C@H]1CCNC1)S(C)(=O)=O [Example 3-3, N-Methyl-N-[(S)-2-(S)-pyrrolidin-3-yl-2-(4-trifluoromethylphenoxy)ethyl]-methanesulfonamide] | ≤ 10
CS(=O)(=O)NC[C@@H](Oc1ccc(C(F)(F)F)cc1)[C@@H]1CCNC1 (stereo in doubt) [Example 3-2, N-[(R)-2-(S)-Pyrrolidin-3-yl-2-(4-trifluoromethylphenoxy)ethyl]-methanesulfonamide] | ≤ 100
CNS(=O)(=O)N(C)C[C@@H](Oc1ccc(C(F)(F)F)cc1)[C@H]1CCNC1 [Example 1] | ≤ 10

More lines, now with the values ahead:

IC50 [nM] | SMILES
≤ 10 | O=S(=O)(NC[C@@H](Oc1ccc(C(F)(F)F)cc1)[C@H]1CCNC1)c1ccccc1 [Example 3-19, N-[(S)-2-(S)-Pyrrolidin-3-yl-2-(4-trifluoromethylphenoxy)ethyl]benzenesulfonamide]
≤ 10 | NS(=O)(=O)c1ccc(S(=O)(=O)NCC(Oc2ccc(C(F)(F)F)cc2)C2CCNC2)cc1 [Example 3-30, Benzene-1,4-disulfonic acid lamide 4-{[(S)-2-(S)-pyrrolidin-3-yl-2-(4-trifluoromethylphenoxy)ethyl]amide}]
≤ 10 | CC(=O)Nc1cccc(S(=O)(=O)NC[C@@H](Oc2ccc(C(F)(F)F)cc2)[C@H]2CCNC2)c1 [Example 3-26, N-{3-[(S)-2-(S)-Pyrrolidin-3-yl-2-(4-trifluoromethylphenoxy)ethylsulfamoyl]phenyl}acetamide]
≤ 100 | CS(=O)(=O)c1cccc(S(=O)(=O)NC[C@@H](Oc2ccc(C(F)(F)F)cc2)[C@H]2CCNC2)c1 [Example 3-28, 3-Methanesulfonyl-N-[(S)-2-(S)-pyrrolidin-3-yl-2-(4-trifluoromethylphenoxy)ethyl]benzenesulfonamide]
≤ 10 | CS(=O)(=O)c1ccc(S(=O)(=O)NC[C@@H](Oc2ccc(C(F)(F)F)cc2)[C@H]2CCNC2)cc1 [Example 3-27, 4-Methanesulfonyl-N-[(S)-2-(S)-pyrrolidin-3-yl-2-(4-trifluoromethylphenoxy)ethyl]benzenesulfonamide]
≤ 10 | CNC(=O)c1cccc(S(=O)(=O)NCC(Oc2ccc(C(F)(F)F)cc2)C2CCNC2)c1 [Example 3-25, N-Methyl-3-[(S)-2-(S)--pyrrolidin-3-yl-2-(4-trifluoromethylphenoxy)ethylsulfamoyl]benamide]
≤ 10 | COc1ccc(S(=O)(=O)NCC(Oc2ccc(C(F)(F)F)cc2)C2CCNC2)cc1 [Example 3-23, 4-Methoxy-N-[(S)-2-(S)-pyrrolidin-3-yl-2-(4-trifluoromethylphenoxy)ethyl]bensenesulfonamide]
≤ 10 | CS(=O)(=O)c1ccccc1S(=O)(=O)NC[C@@H](Oc1ccc(C(F)(F)F)cc1)[C@H]1CCNC1 [Example 3-29, 2-Methanesulfonyl-N-[(S)-2-(S)-pyrrolidin-3-yl-2-(4-trifluoromethylphenoxy)ethyl]benzenesulfonamide]
≤ 10 | O=S(=O)(C[C@@H](Oc1ccc(C(F)(F)F)cc1)[C@H]1CCNC1)NCc1ccccc1 [Example 5, (S)-2-(S)-Pyrrolidin-3-yl-2-(4-trifluoromethylphenoxy)ethanesulfonic Acid Benzylamide]
≤ 10 | O=S(=O)(NC[C@@H](Oc1ccc(C(F)(F)F)cc1)[C@H]1CCNC1)c1ccc(-n2cccn2)cc1 [Example 3-32, 4-Pyrazol-1-yl-N-[(S)-2-(S)-pyrrolidin-3-yl-2-(4-trifluoromethylphenoxy)ethyl]benzenesulfonamide]
≤ 10 | N#Cc1ccc(S(=O)(=O)NC[C@@H](Oc2ccc(C(F)(F)F)cc2)[C@H]2CCNC2)cc1 [Example 3-20, 4-Cyano-N-[(S)-2-(S)-pyrrolidin-3-yl-2-(4-trifluoromethylphenoxy)ethyl]benzenesulfonamide]
≤ 10 | O=S(=O)(NC[C@@H](Oc1ccc(C(F)(F)F)cc1)[C@@H]1CCNC1)c1ccccc1 (stereo in doubt) [Example 3-18, N-[(R)-2-(S)-Pyrrolidin-3-yl-2-(4-trifluoromethylphenoxy)ethyl]benzenesulfonamide]
≤ 10 | COCCc1ccc(S(=O)(=O)NC[C@@H](Oc2ccc(C(F)(F)F)cc2)[C@H]2CCNC2)cc1 [Example 3-24, 4-(2-Methoxyethyl)-N-[(S)-2-(S)-pyrrolidin-3-yl-2-(4-trifluoromethylphenoxy)ethyl]benzenesulfonamide]
≤ 10 | O=[N+]([O-])c1ccc(S(=O)(=O)NC[C@@H](Oc2ccc(C(F)(F)F)cc2)[C@H]2CCNC2)cc1 [Example 3-22, 4-Nitro-N-[(S)-2-(S)-pyrrolidin-3-yl-2-(4-trifluoromethylphenoxy)ethyl]benzenesulfonamide]
